In patent US20260125371A1, “METHOD FOR INHIBITING CLOSTRIDIOIDES DIFFICILE SPORE GERMINATION” (UNIVERSITY OF NOTRE DAME DU LAC, priority 2022, published 2026):
Converted amounts (≈) assume the structure as drawn. Like-named read-outs stand apart in the source and are kept apart here.

What was measured:
[1] = test system: Lactobacillus gasseri HM-644; conditions: cited from earlier work
K. pneumoniae ATCC700603 = test: MIC against K. pneumoniae; type: cell-based; conditions: Klebsiella pneumoniae; K. pneumoniae ATCC700603; read-out: MIC
[2] = test system: Clostridioides difficile infection; conditions: CDI patients; cited from earlier work
C. difficile strains = conditions: cited from earlier work
[3] = C. difficile strains of Table 4

## CCc1c(Cl)c(O)c(Cl)c(O)c1C(=O)O[C@H]1[C@H](O)[C@H](OC)[C@H](OC/C2=C\C=C\C[C@H](O)/C(C)=C/[C@H](CC)[C@@H](O[C@@H]3OC(C)(C)[C@@H](OC(=O)C(C)C)[C@H](O)[C@@H]3O)/C(C)=C/C(C)=C/C[C@@H]([C@@H](C)O)OC2=O)O[C@@H]1C [FDX, fidaxomicin]
[1]
  MIC: 2 µg/mL (≈ 1.89 µM)
K. pneumoniae ATCC700603
  MIC: > 128 µg/mL
[2]
  recurrence of infection: 15%
C. difficile strains; 101 C. difficile strains
  IMIC50 (101 strains): 0.06 µg/mL
  MIC90 (101 strains): 0.25 µg/mL (≈ 0.236 µM)
C. difficile strains; C. difficile 23828, resistant to FDX
  MIC: >8 µg/mL
C. difficile strains; C. difficile 24531, resistant to VAN
  MIC: 0.01 µg/mL (≈ 0.00945 µM)
C. difficile strains; C. difficile 26675, resistant to MTZ
  MIC: 4 µg/mL (≈ 3.78 µM)
C. difficile strains; C. difficile BAA-1803
  MIC: 1 µg/mL (≈ 0.945 µM)
C. difficile strains; C. difficile BAA-1870
  MIC: 0.25 µg/mL (≈ 0.236 µM)
C. difficile strains; C. difficile NR49292
  MIC: 0.5 µg/mL (≈ 0.473 µM)
C. difficile strains; C. difficile NR49294
  MIC: 0.01 µg/mL (≈ 0.00945 µM)
C. difficile strains; C. difficile NR49302
  MIC: 0.03 µg/mL (≈ 0.0284 µM)
C. difficile strains; C. difficile NR49305
  MIC: 0.01 µg/mL (≈ 0.00945 µM)
C. difficile strains; C. difficile NR49310
  MIC: ≤0.01 µg/mL
C. difficile strains; C. difficile NR49318
  MIC: 0.125 µg/mL (≈ 0.118 µM)
C. difficile strains; [3]
  MIC50: 0.06 µg/mL (≈ 0.0567 µM)
  MIC90: 0.25 µg/mL (≈ 0.236 µM)
C. difficile strains; strain ATCC43598
  MIC: 0.01 µg/mL (≈ 0.00945 µM)
C. difficile strains; strain BAA-1801
  MIC: 0.125 µg/mL (≈ 0.118 µM)
C. difficile strains; strain BAA-1803
  MIC: 1 µg/mL (≈ 0.945 µM)
C. difficile strains; strain BAA-1804
  MIC: 0.125 µg/mL (≈ 0.118 µM)
C. difficile strains; strain BAA-1812
  MIC: 0.015 µg/mL (≈ 0.0142 µM)
C. difficile strains; strain BAA-1814
  MIC: 0.03 µg/mL (≈ 0.0284 µM)
C. difficile strains; strain BAA-1870
  MIC: 0.25 µg/mL (≈ 0.236 µM)
C. difficile strains; strain HM-88
  MIC: 0.03 µg/mL (≈ 0.0284 µM)
C. difficile strains; strain HM-89
  MIC: 0.03 µg/mL (≈ 0.0284 µM)
C. difficile strains; strain HM-745
  MIC: 0.125 µg/mL (≈ 0.118 µM)
C. difficile strains; strain HM-746
  MIC: ≤0.03 µg/mL
C. difficile strains; strain HM-747
  MIC: 0.06 µg/mL (≈ 0.0567 µM)
C. difficile strains; strain NR49292
  MIC: 0.5 µg/mL (≈ 0.473 µM)
C. difficile strains; strain NR49294
  MIC: 0.01 µg/mL (≈ 0.00945 µM)
C. difficile strains; strain NR49302
  MIC: 0.03 µg/mL (≈ 0.0284 µM)
C. difficile strains; strain NR49305
  MIC: 0.01 µg/mL (≈ 0.00945 µM)
C. difficile strains; strain NR49310
  MIC: ≤0.01 µg/mL
C. difficile strains; strain NR49318
  MIC: 0.125 µg/mL (≈ 0.118 µM)
C. difficile strains; strain NR-13427
  MIC: 0.03 µg/mL (≈ 0.0284 µM)
C. difficile strains; strain NR-13428
  MIC: ≤0.03 µg/mL
C. difficile strains; strain NR-13429
  MIC: 0.25 µg/mL (≈ 0.236 µM)
C. difficile strains; strain NR-13430
  MIC: ≤0.03 µg/mL
C. difficile strains; strain NR-13431
  MIC: 0.125 µg/mL (≈ 0.118 µM)
C. difficile strains; strain NR-13433
  MIC: 0.125 µg/mL (≈ 0.118 µM)
C. difficile strains; strain NR-13434
  MIC: 0.06 µg/mL (≈ 0.0567 µM)
C. difficile strains; strain NR-13435
  MIC: ≤0.03 µg/mL
C. difficile strains; strain NR-13436
  MIC: 0.125 µg/mL (≈ 0.118 µM)
C. difficile strains; strain NR-13437
  MIC: 0.25 µg/mL (≈ 0.236 µM)
C. difficile strains; strain NR-13438
  MIC: 0.06 µg/mL (≈ 0.0567 µM)
C. difficile strains; strain NR-13553
  MIC: ≤0.03 µg/mL
C. difficile strains; strain NR-32882
  MIC: 0.06 µg/mL (≈ 0.0567 µM)
C. difficile strains; strain NR-32883
  MIC: 0.125 µg/mL (≈ 0.118 µM)
C. difficile strains; strain NR-32884
  MIC: 0.03 µg/mL (≈ 0.0284 µM)
C. difficile strains; strain NR-32885
  MIC: 0.25 µg/mL (≈ 0.236 µM)
C. difficile strains; strain NR-32886
  MIC: 0.03 µg/mL (≈ 0.0284 µM)
C. difficile strains; strain NR-32887
  MIC: 0.125 µg/mL (≈ 0.118 µM)
C. difficile strains; strain NR-32888
  MIC: 0.03 µg/mL (≈ 0.0284 µM)
C. difficile strains; strain NR-32889
  MIC: 0.25 µg/mL (≈ 0.236 µM)
C. difficile strains; strain NR-32890
  MIC: 0.06 µg/mL (≈ 0.0567 µM)
C. difficile strains; strain NR-32891
  MIC: 0.03 µg/mL (≈ 0.0284 µM)
C. difficile strains; strain NR-32892
  MIC: 0.03 µg/mL (≈ 0.0284 µM)
C. difficile strains; strain NR-32895
  MIC: 0.03 µg/mL (≈ 0.0284 µM)
C. difficile strains; strain NR-32896
  MIC: 0.03 µg/mL (≈ 0.0284 µM)
C. difficile strains; strain NR-32897
  MIC: 0.03 µg/mL (≈ 0.0284 µM)
C. difficile strains; strain NR-32900
  MIC: 0.03 µg/mL (≈ 0.0284 µM)
C. difficile strains; strain NR-32903
  MIC: 0.03 µg/mL (≈ 0.0284 µM)
C. difficile strains; strain NR-32904
  MIC: 0.03 µg/mL (≈ 0.0284 µM)
C. difficile strains; strain NR-49277
  MIC: 0.06 µg/mL (≈ 0.0567 µM)
C. difficile strains; strain NR-49278
  MIC: 0.25 µg/mL (≈ 0.236 µM)
C. difficile strains; strain NR-49279
  MIC: 0.25 µg/mL (≈ 0.236 µM)
C. difficile strains; strain NR-49280
  MIC: 0.125 µg/mL (≈ 0.118 µM)
C. difficile strains; strain NR-49281
  MIC: 0.25 µg/mL (≈ 0.236 µM)
C. difficile strains; strain NR-49282
  MIC: 0.06 µg/mL (≈ 0.0567 µM)
C. difficile strains; strain NR-49283
  MIC: 0.03 µg/mL (≈ 0.0284 µM)
C. difficile strains; strain NR-49284
  MIC: 0.06 µg/mL (≈ 0.0567 µM)
C. difficile strains; strain NR-49285
  MIC: 0.06 µg/mL (≈ 0.0567 µM)
C. difficile strains; strain NR-49286
  MIC: 0.25 µg/mL (≈ 0.236 µM)
C. difficile strains; strain NR-49287
  MIC: 0.25 µg/mL (≈ 0.236 µM)
C. difficile strains; strain NR-49288
  MIC: 0.25 µg/mL (≈ 0.236 µM)
C. difficile strains; strain NR-49289
  MIC: 0.03 µg/mL (≈ 0.0284 µM)
C. difficile strains; strain NR-49290
  MIC: 0.06 µg/mL (≈ 0.0567 µM)
C. difficile strains; strain NR-49291
  MIC: 0.25 µg/mL (≈ 0.236 µM)
C. difficile strains; strain NR-49293
  MIC: ≤0.03 µg/mL
C. difficile strains; strain NR-49295
  MIC: ≤0.03 µg/mL
C. difficile strains; strain NR-49296
  MIC: ≤0.03 µg/mL
C. difficile strains; strain NR-49297
  MIC: 0.0125 µg/mL (≈ 0.0118 µM)
C. difficile strains; strain NR-49298
  MIC: 0.125 µg/mL (≈ 0.118 µM)
C. difficile strains; strain NR-49299
  MIC: 0.125 µg/mL (≈ 0.118 µM)
C. difficile strains; strain NR-49300
  MIC: 0.03 µg/mL (≈ 0.0284 µM)
C. difficile strains; strain NR-49301
  MIC: 0.03 µg/mL (≈ 0.0284 µM)
C. difficile strains; strain NR-49303
  MIC: 0.03 µg/mL (≈ 0.0284 µM)
C. difficile strains; strain NR-49304
  MIC: 0.06 µg/mL (≈ 0.0567 µM)
C. difficile strains; strain NR-49306
  MIC: 0.03 µg/mL (≈ 0.0284 µM)
C. difficile strains; strain NR-49307
  MIC: 0.03 µg/mL (≈ 0.0284 µM)
C. difficile strains; strain NR-49308
  MIC: 0.125 µg/mL (≈ 0.118 µM)
C. difficile strains; strain NR-49309
  MIC: 0.03 µg/mL (≈ 0.0284 µM)
C. difficile strains; strain NR-49311
  MIC: 0.03 µg/mL (≈ 0.0284 µM)
C. difficile strains; strain NR-49312
  MIC: 0.125 µg/mL (≈ 0.118 µM)
C. difficile strains; strain NR-49313
  MIC: 0.03 µg/mL (≈ 0.0284 µM)
C. difficile strains; strain NR-49314
  MIC: 0.25 µg/mL (≈ 0.236 µM)
C. difficile strains; strain NR-49315
  MIC: 0.06 µg/mL (≈ 0.0567 µM)
C. difficile strains; strain NR-49316
  MIC: 0.125 µg/mL (≈ 0.118 µM)
C. difficile strains; strain NR-49317
  MIC: 0.06 µg/mL (≈ 0.0567 µM)
C. difficile strains; strain NR-49319
  MIC: 0.125 µg/mL (≈ 0.118 µM)
C. difficile strains; strain NR-49320
  MIC: 0.125 µg/mL (≈ 0.118 µM)
C. difficile strains; strain NR-49321
  MIC: 0.125 µg/mL (≈ 0.118 µM)
C. difficile strains; strain NR-49323
  MIC: ≤0.03 µg/mL
C. difficile strains; strain NR-49324
  MIC: 0.06 µg/mL (≈ 0.0567 µM)
C. difficile strains; strain NR-49325
  MIC: 0.03 µg/mL (≈ 0.0284 µM)
C. difficile strains; strain NR-49326
  MIC: 0.03 µg/mL (≈ 0.0284 µM)
C. difficile strains; strain NR-49327
  MIC: 0.03 µg/mL (≈ 0.0284 µM)
C. difficile strains; strain NR-49328
  MIC: 0.03 µg/mL (≈ 0.0284 µM)
C. difficile strains; strain NR-49329
  MIC: 0.03 µg/mL (≈ 0.0284 µM)
C. difficile strains; strain RMA23691
  MIC: 4 µg/mL (≈ 3.78 µM)
C. difficile strains; strain RMA23828
  MIC: >8 µg/mL
C. difficile strains; strain RMA24531
  MIC: 0.01 µg/mL (≈ 0.00945 µM)
C. difficile strains; strain RMA24923
  MIC: 0.06 µg/mL (≈ 0.0567 µM)
C. difficile strains; strain RMA26675
  MIC: 4 µg/mL (≈ 3.78 µM)
C. difficile strains; strain RMA27081
  MIC: >8 µg/mL
C. difficile strains; strain RMA27173
  MIC: 0.01 µg/mL (≈ 0.00945 µM)
